From PubChem BioAssay (NCI)
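Compound exposure: 48 hours, 5 concentrations, 96-well plates. TGI denotes the concentration required for complete inhibition of growth.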

What was measured:
Assay in all cases: DTP human tumour cell line panel, 48 h
[1] = system: 786-0 renal
[2] = system: A498 renal
[3] = system: A549 NSCLC
[4] = system: ACHN renal
[5] = system: CAKI-1 renal
[6] = system: CCRF-CEM leukemia
[7] = system: COLO 205 colon
[8] = system: DU-145 prostate
[9] = system: EKVX NSCLC
[10] = system: HCC-2998 colon
[11] = system: HCT-116 colon
[12] = system: HCT-15 colon
[13] = system: HL-60(TB) leukemia
[14] = system: HOP-62 NSCLC
[15] = system: HOP-92 NSCLC
[16] = system: HS 578T breast
[17] = system: IGROV1 ovarian
[18] = system: K-562 leukemia
[19] = system: KM12 colon
[20] = system: LOX IMVI melanoma
[21] = system: M14 melanoma
[22] = system: MALME-3M melanoma
[23] = system: MCF7 breast
[24] = system: MDA-MB-231 breast
[25] = system: MDA-MB-435
[26] = system: MDA-N
[27] = system: MOLT-4 leukemia
[28] = system: NCI-H23 lung
[29] = system: NCI-H460 lung
[30] = system: NCI-H522 lung
[31] = system: OVCAR-3 ovarian
[32] = system: OVCAR-4 ovarian
[33] = system: OVCAR-5 ovarian
[34] = system: PC-3 prostate
[35] = system: RPMI-8226 leukemia
[36] = system: RXF 393 renal
[37] = system: SF-268 CNS
[38] = system: SF-295 CNS
[39] = system: SF-539 CNS
[40] = system: SK-MEL-2 melanoma
[41] = system: SK-MEL-28 melanoma
[42] = system: SK-MEL-5 melanoma
[43] = system: SK-OV-3 ovarian
[44] = system: SN12C renal
[45] = system: SNB-19 CNS
[46] = system: SNB-75 CNS
[47] = system: SR leukemia
[48] = system: SW-620 colon
[49] = system: T-47D breast
[50] = system: TK-10 renal
[51] = system: U251 CNS
[52] = system: UACC-257 melanoma
[53] = system: UACC-62 melanoma
[54] = system: UO-31 renal
[55] = system: HT29 colon
[56] = system: NCI-H226 lung
[57] = system: NCI/ADR-RES ovarian
[58] = system: OVCAR-8 ovarian

Which results are given for CCOC(=O)C(=CNC(=S)c1ccncc1)C(=O)OCC?
TGI [1]: > 100 µM; TGI [2]: > 100 µM; TGI [3]: > 100 µM; TGI [4]: > 100 µM; TGI [5]: > 100 µM; TGI [6]: > 100 µM; TGI [7]: > 100 µM; TGI [8]: > 100 µM; TGI [9]: > 100 µM; TGI [10]: > 100 µM; TGI [11]: > 100 µM; TGI [12]: > 100 µM; TGI [13]: > 100 µM; TGI [14]: > 100 µM; TGI [15]: > 100 µM; TGI [16]: > 100 µM; TGI [17]: > 100 µM; TGI [18]: > 100 µM; TGI [19]: > 100 µM; TGI [20]: > 100 µM; TGI [21]: > 100 µM; TGI [22]: > 100 µM; TGI [23]: > 100 µM; TGI [24]: > 100 µM; TGI [25]: > 100 µM; TGI [26]: > 100 µM; TGI [27]: > 100 µM; TGI [28]: > 100 µM; TGI [29]: > 100 µM; TGI [30]: > 100 µM; TGI [31]: > 100 µM; TGI [32]: > 100 µM; TGI [33]: > 100 µM; TGI [34]: > 100 µM; TGI [35]: > 100 µM; TGI [36]: > 100 µM; TGI [37]: > 100 µM; TGI [38]: > 100 µM; TGI [39]: > 100 µM; TGI [40]: > 100 µM; TGI [41]: > 100 µM; TGI [42]: > 100 µM; TGI [43]: > 100 µM; TGI [44]: > 100 µM; TGI [45]: > 100 µM; TGI [46]: > 100 µM; TGI [47]: > 100 µM; TGI [48]: > 100 µM; TGI [49]: > 100 µM; TGI [50]: > 100 µM; TGI [51]: > 100 µM; TGI [52]: > 100 µM; TGI [53]: > 100 µM; TGI [54]: > 100 µM

CC1(C)COC(c2ccc(C(=O)c3ccc(Cl)cc3)cc2)=N1 was tested. Which TGI [1] did it give?
The TGI was > 100 µM.

What about the TGI [3] of the same molecule?
The TGI was > 100 µM.

What about the TGI [4] of the same molecule?
The TGI was > 100 µM.

And the TGI [5]?
The TGI was > 100 µM.

What about the TGI [6] of the same molecule?
The TGI was > 100 µM.

What about the TGI [7] of the same molecule?
The TGI was > 100 µM.

And the TGI [8]?
Its TGI is > 100 µM.

What about the TGI [9] of the same molecule?
The TGI was > 100 µM.

What about the TGI [10] of the same molecule?
Its TGI is > 100 µM.

And the TGI [11]?
Its TGI is > 100 µM.

And the TGI [12]?
The TGI was > 100 µM.

And the TGI [13]?
The TGI was > 100 µM.

What about the TGI [14] of the same molecule?
The TGI was > 100 µM.

And the TGI [15]?
Its TGI is > 100 µM.

And the TGI [16]?
The TGI was > 100 µM.

And the TGI [55]?
The TGI was > 100 µM.

What about the TGI [17] of the same molecule?
The TGI was > 100 µM.

And the TGI [18]?
Its TGI is > 100 µM.

What about the TGI [19] of the same molecule?
The TGI was > 100 µM.

What about the TGI [20] of the same molecule?
Its TGI is > 100 µM.

And the TGI [21]?
The TGI was > 100 µM.

And the TGI [22]?
Its TGI is > 100 µM.

And the TGI [23]?
The TGI was > 100 µM.

And the TGI [24]?
Its TGI is > 100 µM.

What about the TGI [25] of the same molecule?
Its TGI is > 100 µM.

What about the TGI [26] of the same molecule?
The TGI was > 100 µM.

And the TGI [27]?
The TGI was > 100 µM.

And the TGI [56]?
Its TGI is > 100 µM.

What about the TGI [28] of the same molecule?
The TGI was > 100 µM.

What about the TGI [29] of the same molecule?
Its TGI is > 100 µM.

And the TGI [30]?
The TGI was > 100 µM.

What about the TGI [57] of the same molecule?
Its TGI is > 100 µM.

And the TGI [31]?
Its TGI is > 100 µM.

What about the TGI [33] of the same molecule?
The TGI was > 100 µM.

What about the TGI [58] of the same molecule?
Its TGI is > 100 µM.

And the TGI [34]?
Its TGI is > 100 µM.

What about the TGI [35] of the same molecule?
Its TGI is > 100 µM.

What about the TGI [36] of the same molecule?
Its TGI is > 100 µM.

And the TGI [37]?
The TGI was > 100 µM.

What about the TGI [38] of the same molecule?
The TGI was > 100 µM.

What about the TGI [39] of the same molecule?
The TGI was > 100 µM.

What about the TGI [40] of the same molecule?
Its TGI is > 100 µM.

And the TGI [41]?
The TGI was > 100 µM.

And the TGI [42]?
Its TGI is 30.5 µM.

And the TGI [43]?
The TGI was > 100 µM.

And the TGI [44]?
Its TGI is > 100 µM.

What about the TGI [45] of the same molecule?
The TGI was > 100 µM.

What about the TGI [46] of the same molecule?
Its TGI is > 100 µM.

And the TGI [48]?
The TGI was > 100 µM.

What about the TGI [51] of the same molecule?
Its TGI is > 100 µM.

And the TGI [52]?
Its TGI is 64.9 µM.

What about the TGI [53] of the same molecule?
Its TGI is > 100 µM.

What about the TGI [54] of the same molecule?
Its TGI is > 100 µM.
